{"source": "paper PMC3930563", "about": "“Mycobacterium tuberculosis Exploits Asparagine to Assimilate Nitrogen and Resist Acid Stress during Infection” (PLoS Pathogens, 2014)", "target": "AnsA (Rv1538c), recombinant AnsA-HIS6 (Mycobacterium tuberculosis, UniProt P9WPX5)", "sequence (P9WPX5 whole entry)": "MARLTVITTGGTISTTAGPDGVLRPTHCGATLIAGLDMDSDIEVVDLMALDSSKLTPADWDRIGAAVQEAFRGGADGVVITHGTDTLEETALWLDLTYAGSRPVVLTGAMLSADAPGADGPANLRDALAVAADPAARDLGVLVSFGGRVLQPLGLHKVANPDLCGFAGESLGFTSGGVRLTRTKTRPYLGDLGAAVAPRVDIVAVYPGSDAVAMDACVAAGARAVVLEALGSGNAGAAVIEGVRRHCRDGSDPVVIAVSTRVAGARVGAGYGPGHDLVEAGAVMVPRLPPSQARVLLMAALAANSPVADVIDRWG", "data": [{"smiles": "NC(=O)C[C@H](N)C(=O)O", "note": "[Asn, asparagine]", "values": [{"measurement": "coupled glutamate dehydrogenase assay, NADPH disappearance at 340 nm", "value": "revealed that AnsA mediates asparagine hydrolysis (Fig. 1E)"}]}]}
